Several values for one entry are separate records, joined by “and”; a condition that tells them apart may be missing. Equal entries are not always repeated. ± gives the expanded uncertainty stated by the source.
Conditions: Liquid

CCCCCCCCCCCCCCCC(=O)OC [methyl hexadecanoate]
Conditions | vapor or sublimation pressure
308.12 K | 2.814e-05 ± 3.2e-06 kPa
312 K | 4.574e-05 ± 3.3e-06 kPa
312.96 K | 5.318e-05 ± 3.3e-06 kPa
312.97 K | 4.817e-05 ± 3.3e-06 kPa
314.42 K | 5.995e-05 ± 3.3e-06 kPa
315.4 K | 6.903e-05 ± 3.3e-06 kPa
316.85 K | 7.591e-05 ± 3.3e-06 kPa
317.81 K | 8.232e-05 ± 3.3e-06 kPa
317.82 K | 8.757e-05 ± 3.3e-06 kPa
319.27 K | 0.0001 ± 3.4e-06 kPa
320.26 K | 0.0001123 ± 3.4e-06 kPa
321.71 K | 0.0001276 ± 3.4e-06 kPa
322.66 K | 0.0001426 ± 3.5e-06 kPa
322.67 K | 0.000144 ± 3.5e-06 kPa
324.12 K | 0.0001655 ± 3.5e-06 kPa
325.11 K | 0.0001853 ± 3.6e-06 kPa
326.56 K | 0.0002146 ± 3.7e-06 kPa
327.52 K | 0.0002379 ± 3.8e-06 kPa and 0.0002346 ± 3.8e-06 kPa
328.98 K | 0.0002676 ± 3.9e-06 kPa
329.96 K | 0.0002973 ± 4.1e-06 kPa
331.42 K | 0.0003403 ± 4.4e-06 kPa
332.37 K | 0.0003763 ± 4.9e-06 kPa and 0.000377 ± 4.9e-06 kPa
333.83 K | 0.000429 ± 5.5e-06 kPa
334.83 K | 0.0004701 ± 6e-06 kPa
336.28 K | 0.0005477 ± 7e-06 kPa
337.23 K | 0.0006044 ± 7.7e-06 kPa and 0.0005995 ± 7.6e-06 kPa
338.69 K | 0.0006834 ± 8.7e-06 kPa
339.69 K | 0.0007518 ± 9.5e-06 kPa
341.14 K | 0.0008558 ± 1.1e-05 kPa
342.09 K | 0.0009461 ± 1.2e-05 kPa and 0.0009339 ± 1.2e-05 kPa
343.55 K | 0.00107 ± 1.3e-05 kPa
344.55 K | 0.001176 ± 1.5e-05 kPa
345.01 K | 0.001226 ± 1.5e-05 kPa
346 K | 0.001334 ± 1.7e-05 kPa
346.95 K | 0.001462 ± 1.8e-05 kPa and 0.001463 ± 1.8e-05 kPa
348.41 K | 0.001655 ± 2.1e-05 kPa
349.41 K | 0.001817 ± 2.3e-05 kPa
349.87 K | 0.001888 ± 2.4e-05 kPa
350.86 K | 0.002055 ± 2.6e-05 kPa
351.82 K | 0.002257 ± 2.8e-05 kPa
353.27 K | 0.002528 ± 3.1e-05 kPa
354.29 K | 0.002774 ± 3.5e-05 kPa
354.73 K | 0.002884 ± 3.6e-05 kPa
355.73 K | 0.003112 ± 3.9e-05 kPa
356.67 K | 0.003414 ± 4.2e-05 kPa
358.13 K | 0.003814 ± 4.7e-05 kPa
359.16 K | 0.004171 ± 5.2e-05 kPa
359.59 K | 0.004332 ± 5.4e-05 kPa
359.63 K | 0.004286 ± 5.3e-05 kPa
360.59 K | 0.004673 ± 5.8e-05 kPa
361.55 K | 0.005107 ± 6.3e-05 kPa
363 K | 0.00565 ± 7e-05 kPa
364.02 K | 0.006171 ± 7.6e-05 kPa
364.45 K | 0.006382 ± 7.9e-05 kPa
364.49 K | 0.006315 ± 7.8e-05 kPa
365.45 K | 0.006842 ± 8.5e-05 kPa
366.41 K | 0.00747 ± 9.2e-05 kPa
367.87 K | 0.008233 ± 0.0001 kPa
368.87 K | 0.008934 ± 0.00011 kPa
369.32 K | 0.009208 ± 0.00011 kPa
371.29 K | 0.01071 ± 0.00013 kPa
371.74 K | 0.01102 ± 0.00014 kPa
372.64 K | 0.01169 ± 0.00015 kPa
372.73 K | 0.01183 ± 0.00015 kPa
375.03 K | 0.0139 ± 0.00021 kPa
377.49 K | 0.0166 ± 0.00023 kPa
379.9 K | 0.01941 ± 0.00026 kPa
382.34 K | 0.02319 ± 0.00031 kPa
384.76 K | 0.02705 ± 0.00035 kPa
387.21 K | 0.03214 ± 0.00042 kPa
389.66 K | 0.03772 ± 0.00049 kPa
392.06 K | 0.04434 ± 0.00057 kPa
394.52 K | 0.05191 ± 0.00066 kPa
396.92 K | 0.06045 ± 0.00077 kPa
399.39 K | 0.07078 ± 0.00089 kPa
401.78 K | 0.08154 ± 0.001 kPa
404.23 K | 0.09507 ± 0.0012 kPa
406.65 K | 0.1092 ± 0.0014 kPa
409.09 K | 0.1267 ± 0.0016 kPa
411.5 K | 0.1469 ± 0.0018 kPa
411.52 K | 0.1459 ± 0.0018 kPa
416.35 K | 0.1929 ± 0.0024 kPa
421.21 K | 0.2522 ± 0.0031 kPa
426.08 K | 0.3266 ± 0.004 kPa
428.52 K | 0.37 ± 0.0046 kPa
430.94 K | 0.4193 ± 0.0052 kPa

CCCCCCCCCCCCCCCCCC(=O)OC [methyl octadecanoate]
Conditions | vapor or sublimation pressure
323.15 K | 1.964e-05 ± 1.7e-06 kPa
325.63 K | 2.609e-05 ± 1.7e-06 kPa
329.6 K | 4.071e-05 ± 1.7e-06 kPa
330.56 K | 4.58e-05 ± 1.7e-06 kPa
332.04 K | 5.362e-05 ± 1.8e-06 kPa
333.07 K | 6.007e-05 ± 1.8e-06 kPa
334.55 K | 6.999e-05 ± 1.8e-06 kPa
335.51 K | 7.764e-05 ± 1.8e-06 kPa
336.99 K | 9.04e-05 ± 1.9e-06 kPa
338.02 K | 0.0001008 ± 1.9e-06 kPa
339.5 K | 0.0001184 ± 2e-06 kPa
340.47 K | 0.0001287 ± 2e-06 kPa
340.98 K | 0.0001351 ± 2.1e-06 kPa
341.1 K | 0.0001377 ± 2.1e-06 kPa
341.96 K | 0.0001499 ± 2.1e-06 kPa
342.97 K | 0.0001648 ± 2.3e-06 kPa
343.46 K | 0.0001744 ± 2.4e-06 kPa
343.47 K | 0.0001739 ± 2.4e-06 kPa
343.6 K | 0.0001774 ± 2.4e-06 kPa
344.44 K | 0.0001914 ± 2.6e-06 kPa
345.44 K | 0.0002122 ± 2.8e-06 kPa
345.93 K | 0.0002228 ± 3e-06 kPa and 0.0002233 ± 3e-06 kPa
348.42 K | 0.0002848 ± 3.7e-06 kPa
348.57 K | 0.0002879 ± 3.8e-06 kPa
350.9 K | 0.0003613 ± 4.7e-06 kPa
355.89 K | 0.0005743 ± 7.3e-06 kPa
358.52 K | 0.0007236 ± 9.2e-06 kPa
360.89 K | 0.0008965 ± 1.1e-05 kPa
363.49 K | 0.001127 ± 1.4e-05 kPa
363.98 K | 0.00118 ± 1.5e-05 kPa
365.92 K | 0.001386 ± 1.7e-05 kPa
366.47 K | 0.00146 ± 1.8e-05 kPa
368.46 K | 0.001721 ± 2.1e-05 kPa
368.97 K | 0.001804 ± 2.3e-05 kPa
370.93 K | 0.002113 ± 2.6e-05 kPa
371.46 K | 0.002216 ± 2.8e-05 kPa
373.44 K | 0.002588 ± 3.2e-05 kPa
373.95 K | 0.00271 ± 3.4e-05 kPa
373.96 K | 0.002713 ± 3.4e-05 kPa
375.45 K | 0.003046 ± 3.8e-05 kPa
375.93 K | 0.003163 ± 3.9e-05 kPa
376.44 K | 0.003286 ± 4.1e-05 kPa
377.44 K | 0.003573 ± 4.4e-05 kPa
380.44 K | 0.004514 ± 5.6e-05 kPa and 0.0045 ± 5.6e-05 kPa
381.43 K | 0.004848 ± 6e-05 kPa
381.44 K | 0.004888 ± 6.1e-05 kPa and 0.0049 ± 6.1e-05 kPa
382.43 K | 0.005241 ± 6.5e-05 kPa
383.93 K | 0.005905 ± 7.3e-05 kPa
383.94 K | 0.0059 ± 7.3e-05 kPa
385.43 K | 0.006597 ± 8.2e-05 kPa and 0.006574 ± 8.1e-05 kPa
386.43 K | 0.007091 ± 8.8e-05 kPa and 0.007085 ± 8.8e-05 kPa
388.93 K | 0.00852 ± 0.00011 kPa
391.41 K | 0.01021 ± 0.00013 kPa
393.92 K | 0.0122 ± 0.0002 kPa
396.39 K | 0.01443 ± 0.00021 kPa
398.9 K | 0.01726 ± 0.00023 kPa
401.38 K | 0.0202 ± 0.00027 kPa
403.89 K | 0.02406 ± 0.00032 kPa
406.38 K | 0.0282 ± 0.00037 kPa
408.88 K | 0.03336 ± 0.00043 kPa

Transpiration method
Conditions | vapor or sublimation pressure [kPa]
369.05 K | 0.00176 ± 0.00036
371.15 K | 0.00202 ± 0.00041
375.1 K | 0.0027 ± 0.00055
377.05 K | 0.00323 ± 0.00066
380.05 K | 0.00389 ± 0.00079
383.15 K | 0.00494 ± 0.001
387.15 K | 0.00636 ± 0.0013
390.35 K | 0.00731 ± 0.0015
393.15 K | 0.00901 ± 0.0018
397.5 K | 0.013 ± 0.0026
399.45 K | 0.0149 ± 0.003
400.35 K | 0.0159 ± 0.0032
401.35 K | 0.0166 ± 0.0034
405.2 K | 0.0225 ± 0.0046
405.6 K | 0.0231 ± 0.0047
408.4 K | 0.0279 ± 0.0057
410.25 K | 0.0322 ± 0.0066
411.15 K | 0.0339 ± 0.0069
412.3 K | 0.036 ± 0.0073
415.2 K | 0.0433 ± 0.0088
416.35 K | 0.0424 ± 0.0086
419.25 K | 0.052 ± 0.011
420.15 K | 0.0563 ± 0.011
423.1 K | 0.0664 ± 0.013
425.15 K | 0.0804 ± 0.016

From the NIST ThermoML archive (doi:10.1016/j.jct.2019.01.007)
